As a reminder, the IC50 is the concentration at which inhibition is half-maximal. Higher therefore signals weaker potency. Usually ED50 stands for the dose that gives a 50% effect, or the effect in half of the subjects.

The record followed here is patent US5637595A, “Cyclic ether acetal PAF antagonists” (British Bio-technology Limited, priority 1991, dated 1997).

Assay [1] deals with T1, PAF receptor (human platelet plasma membranes) (Homo sapiens, UniProt P25105).
T1 construct: Platelet concentrates were obtained from a hospital blood bank; from tissue; host or cells: human platelets (platelet concentrates from a hospital blood bank), lysed membranes
Put plainly: Inhibition of [^3 H]-PAF receptor binding to human platelet plasma membranes. The settings on record: [^3 H]-PAF 0.5 nM, 0° C., 1 hour incubation, pH 7.0. How it is done: The inhibition of [^3 H]-PAF binding to human platelet plasma membranes by compounds of general formula I was determined by isotopic labelling and filtration techniques. Platelet concentrates were obtained from a hospital blood bank. These platelet concentrates (500-2500 ml.) were centrifuged at 800 rpm for 10 minutes in a SORVALL RC3B centrifuge to remove the red blood cells present. (The word SORVALL is a trade mark.) The supernalant was subsequently centrifuged at 3,000 rpm in a SORVALL RC3B centrifuge to pellet the platelets present. The platelet rich pellets were resuspended in a minimum volume of buffer (150 mM NaCl, 10 mM Tris, 2 mM EDTA, pH 7.5) and layered onto Ficoll-Paque gradients, 9 ml platelet concentrate to 2 ml Ficoll, and centrifuged at 1,900 rpm for 15 minutes in a SORVALL RT6000 centrifuge. This step removes the residual red blood cells and other nonspecific material such as lymphocytes from the preparation. The platelets which form a band between the plasma and the Ficoll were removed, resuspended in the above buffer and centrifuged at 3,000 rpm for 10 minutes in a SORVALL RT6000 centrifuge. The pelleted platelets were resuspended in buffer (10 mM Tris, 5mM MgCl2, 2 mM EDTA, pH 7.0), snap freezed in liquid N2 and allowed to thaw slowly at room temperature in order to lyse the platelets. The latter step was repeated at least 3 times to ensure proper lysis. […]

The subject of assay [2] is PAF-induced hypotension in the rat. Put plainly: Inhibition of PAF-induced hypotension in the rat. Type of assay: in vivo, rat (male Sprague-Dawley). To be noted: iv, anaesthetised rats, PAF 100 ng/kg/min i.v. infusion, test compound i.v. bolus, straight line interpolation, read-out: ED50, dose to cause a 50% reversal of the hypotensive PAF response. As for the experimental part:
Male Sprague-Dawley rats (300-400 g) were anaesthetised with a mixture of sodium pentobarbitone, 22.5 mg/kg and thiopental 62.5 mg/kg. Through a midline incision in the neck, the trachea was cannulated and the animals breathed spontaneously. A carotid artery was cannulated for the measurement of blood pressure and this signal was used to trigger a rate meter to measure heart rate. Both jugular veins were cannulated: one for the infusion of PAF and the other for the bolus administration of test compounds.
PAF, 100 ng/kg/min was infused i.v. until a sustained fall in mean blood pressure of 50 mmHg was achieved. […] The peak of this reversal was measured and the dose to cause a 50% reversal of the hypotensive PAF response (ED50) calculated by straight line interpolation and the results are presented in Table 2.

T1 sequence (P25105 whole entry): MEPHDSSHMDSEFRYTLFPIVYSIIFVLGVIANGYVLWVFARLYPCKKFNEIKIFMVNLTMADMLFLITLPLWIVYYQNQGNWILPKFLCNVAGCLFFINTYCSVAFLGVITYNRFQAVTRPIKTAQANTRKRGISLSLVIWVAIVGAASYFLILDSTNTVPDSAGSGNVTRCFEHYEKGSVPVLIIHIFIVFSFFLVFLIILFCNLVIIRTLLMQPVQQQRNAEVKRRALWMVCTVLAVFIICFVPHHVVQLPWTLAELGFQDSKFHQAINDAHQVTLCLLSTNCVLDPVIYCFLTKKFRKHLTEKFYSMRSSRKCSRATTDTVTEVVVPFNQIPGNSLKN

Molecule `CCCCCCCC1CCCC(OCCCn2c(C)nc3cnccc32)O1` (stereo not drawn) [Example 1, O-(3-(2-Methylimidazo[4,5-c]pyrid-1-yl)propyl)-5-n-heptyl-delta-valerolactol ether] came in with an IC50 in assay [1] of 80 nM.
In the case of `CCCCCCCC1CCC(OCCCn2c(C)nc3cnccc32)O1` (stereo not drawn) [Example 2, O-(3-(2-Methylimidazo[4,5-c]pyrid-1-yl)propyl)-5-n-heptyl-gamma-butyrolactol ether], the 50% inhibitory concentration (IC50) in assay [1] was 120 nM. In addition, in assay [2], the median effective dose (ED50) worked out at 2.1 µg/kg.
